Data reported in patent US11077205B2, “Synthetic compound for improving efficiency of transfection” (Klinikum der Universität München, priority 2016, dated 2021).
The star is where a group is joined. ξ: configuration not given here. Lipoyl(6ξ) = O=C(CCCCC1CCSS1)*

How the values were obtained:
16HBE cells = test: In vitro transfection, Metridia luciferase assay in 16HBE cells; assay type: cell-based, human; conditions: day 2
[1] = Size and zeta potential measurements (Zetasizer Nano ZS) of P704 based binary and ternary complexes; assay type: physicochemical
Description: Size and zeta potential measurements: Particle size and zeta potential measurements of P704 based binary and ternary complexes were measured using a Zetasizer Nano ZS (Malvern Instruments Ltd.) at 25° C. Binary complexes were prepared in Tyrode's solution at a weight/weight ratio (P704/IVT-mRNA or pDNA) of 63:1. Ternary complexes were prepared in NF-water with P704 at a weight/weight ratio of 63:1 and the compound at N/P ratio of 10:1 (compound 0 (DL) and compound 8) or 5:1 (compound 4 and compound 9) using methods described above. The IVT-mRNA and pDNA concentration in both binary and ternary complexes was fixed at 10 μg/ml.
The results of physical characterizations (size and zeta potential) of P704 based binary and ternary complexes containing IVT-mRNA or pDNA are given in the following table: […]

| Substance | pDNA expression compared with compound 3 containing ternary complex (16HBE cells) | particle size of ternary complex compared with other counterparts [1] |
| --- | --- | --- |
| NH2-VKRKKKPKKRRRRKKWK(DL-lipoic acid)-CONH2 (H-VKRKKKPKKRRRRKKWK(Lipoyl(6ξ))-NH2; SMILES CC(C)[C@H](N)C(=O)N[C@@H](CCCCN)C(=O)N[C@@H](CCCNC(=N)N)C(=O)N[C@@H](CCCCN)C(=O)N[C@@H](CCCCN)C(=O)N[C@@H](CCCCN)C(=O)N1CCC[C@H]1C(=O)N[C@@H](CCCCN)C(=O)N[C@@H](CCCCN)C(=O)N[C@@H](CCCNC(=N)N)C(=O)N[C@@H](CCCNC(=N)N)C(=O)N[C@@H](CCCNC(=N)N)C(=O)N[C@@H](CCCNC(=N)N)C(=O)N[C@@H](CCCCN)C(=O)N[C@@H](CCCCN)C(=O)N[C@@H](Cc1c[nH]c2ccccc12)C(=O)N[C@@H](CCCCNC(=O)CCCCC1CCSS1)C(N)=O) [compound 0 (DL)] | similar |  |
| KETWWETWWTEWWTEW-KKKKRRRRRKKKK-GACSERSMNFCG (KETWWETWWTEWWTEWKKKKRRRRRKKKKGACSERSMNFCG) [compound 9] |  | slightly smaller |
